Test results: patent US8871774B2, “Inhibitors of influenza viruses replication” (priority 2010, dated 2014)
Where two headings read alike, the source gives them in different places.

Key:
[1] = test system: Influenza virus, strain A/PR/8/34; test: microbe, parasite or virus in culture; assay type: cell-based; conditions: unidentified influenza virus, PR/8, read-out: bDNA EC50 (uM)
[2] = test system: influenza A virus (A/PR/8/34); test: cytopathic effect (CPE) assay, MDCK cell protection by ATP detection; assay type: cell-based; conditions: Influenza A virus, mean IC50, MDCK cells, A/PR/8/34, 72 hours, 50% cell protection
[3] = Table 1, read-out: Flu, MDCK IC50
[4] = Table 2, read-out: Flu MDCK IC50

Work on COC(=O)[C@H]1C2CCC(CC2)[C@@H]1Nc1nc(-c2n[nH]c3ncc(Cl)cc23)ncc1F (racemic) [Compound I-2, (+/−)-trans-(2,3)-methyl 3-((2-(5-chloro-1H-pyrazolo[3,4-b]pyridin-3-yl)-5-fluoropyrimidin-4-yl)amino)bicyclo[2.2.2]octane-2-carboxylate] yielded an EC50 [1] of under 3.3 µM and an IC50 [2, 3] of under 3.3 µM.

Work on O=C(O)[C@H]1C2CCC(CC2)[C@@H]1Nc1nc(-c2n[nH]c3ncc(Cl)cc23)ncc1F (racemic) [Compound I-6, (+/−) trans-(2S,3S)-3-((2-(5-chloro-1H-pyrazolo[3,4-b]pyridin-3-yl)-5-fluoropyrimidin-4-yl)amino)bicyclo[2.2.2]octane-2-carboxylic acid] yielded an EC50 [1] of under 3.3 µM and an IC50 [2, 3] of under 3.3 µM.

With O=C(O)[C@H]1C2CCC(CC2)[C@@H]1Nc1nc(-c2n[nH]c3ncccc23)ncc1F (racemic) [Compound I-11, (+/−)-trans-3-((5-fluoro-2-(1H-pyrazolo[3,4-b]pyridin-3-yl)pyrimidin-4-yl)amino)bicyclo-[2.2.2]octane-2-carboxylic acid] the EC50 [1] was under 3.3 µM and the IC50 [2, 3] was under 3.3 µM.

For C[C@]1(C(=O)O)CCCC[C@@H]1Nc1nc(-c2n[nH]c3ncc(Cl)cc23)ncc1F (racemic) [Compound I-13, (+/−)-2-((2-(5-chloro-1H-pyrazolo[3,4-b]pyridin-3-yl)-5-fluoropyrimidin-4-yl)amino)-1-methylcyclohexanecarboxylic acid], the EC50 [1] was under 3.3 µM and the IC50 [2, 3] was under 3.3 µM.

COC(=O)[C@H]1C2CCC(CC2)[C@@H]1Nc1nc(-c2n[nH]c3ncc(F)cc23)ncc1F (racemic) [Compound I-28, (+/−) trans-methyl 3-(5-fluoro-2-(5-fluoro-1H-pyrazolo[3,4-b]pyridin-3-yl)pyrimidin-4-ylamino)bicyclo[2.2.2]octane-2-carboxylate] showed an EC50 [1] of under 3.3 µM and an IC50 [2, 3] of under 3.3 µM.

Compound COC(=O)[C@H]1C2CCC(CC2)[C@@H]1Nc1nc(-c2n[nH]c3ncc(F)cc23)ncc1Cl (racemic) [Compound I-32, (+/−)-trans-(2,3)-methyl 3-((5-chloro-2-(5-fluoro-1H-pyrazolo[3,4-b]pyridin-3-yl)pyrimidin-4-yl)amino)bicyclo[2.2.2]octane-2-carboxylate] has an EC50 [1] of under 3.3 µM and an IC50 [2, 3] of under 3.3 µM.

Work on O=C(O)[C@H]1C2CCC(CC2)[C@@H]1Nc1nc(-c2n[nH]c3ncc(F)cc23)ncc1Cl (racemic) [Compound I-33, (+/−)-trans-(2,3)-3-((5-chloro-2-(5-fluoro-1H-pyrazolo[3,4-b]pyridin-3-yl)pyrimidin-4-yl)amino)bicyclo[2.2.2]octane-2-carboxylic acid] yielded an EC50 [1] of under 3.3 µM and an IC50 [2, 3] of under 3.3 µM.

Compound COC(=O)[C@H]1C2CCCC(CC2)[C@@H]1Nc1nc(-c2n[nH]c3ncc(F)cc23)ncc1F (mixture of isomers) [Compound I-36, (+/−)-methyl 7-(5-fluoro-2-(5-fluoro-1H-pyrazolo[3,4-b]pyridin-3-yl)pyrimidin-4-ylamino)bicyclo[3.2.2]nonane-6-carboxylate] has an EC50 [1] of under 3.3 µM and an IC50 [2, 3] of under 3.3 µM.

O=C(O)[C@H]1C2CCCC(CC2)[C@@H]1Nc1nc(-c2n[nH]c3ncc(F)cc23)ncc1F (mixture of isomers) [Compound I-37, (+/−)-7-(5-fluoro-2-(5-fluoro-1H-pyrazolo[3,4-b]pyridin-3-yl)pyrimidin-4-ylamino)bicyclo[3.2.2]nonane-6-carboxylic acid] showed an EC50 [1] of under 3.3 µM and an IC50 [2, 3] of under 3.3 µM.

Compound COC(=O)[C@H]1C2CCC(CC2)C1Nc1ccnc(-c2n[nH]c3ncc(F)cc23)n1 (mixture of isomers) [Compound I-42, (+/−)-trans-methyl-3-((2-(5-fluoro-1H-pyrazolo[3,4-b]pyridin-3-yl)pyrimidin-4-yl)amino)bicyclo[2.2.2]octane-2-carboxylate] has an EC50 [1] of under 3.3 µM and an IC50 [2, 4] of under 3.3 µM.

In the case of O=C(O)[C@H]1C2CCC(CC2)C1Nc1ccnc(-c2n[nH]c3ncc(F)cc23)n1 (mixture of isomers) [Compound I-43, (+/−)-trans-3-((2-(5-fluoro-1H-pyrazolo[3,4-b]pyridin-3-yl)pyrimidin-4-yl)amino)bicyclo[2.2.2]octane-2-carboxylic acid], the EC50 [1] is reported as under 3.3 µM and the IC50 [2, 4] is reported as under 3.3 µM.
